# In PMC12533185 (Nature Communications, 2025):
# Columns and labels:
# [1] = test system: mechanical loading PTOA mice; test: Joint histology; format: in vivo, mouse; details: six weeks
# [2] = test system: mechanical loading PTOA mice; test: OARSI score in PTOA mice; format: in vivo, mouse
# [3] = test system: mechanical loading PTOA mice; test: Walking speed in PTOA mice; format: in vivo, mouse; details: after six weeks, MP 4 mg/kg weekly
# [4] = test system: mechanical loading PTOA mice; test: Micro-CT: osteophyte size in PTOA mice; format: in vivo, mouse
# [5] = test system: Col2α1 mRNA; test: Col2α1 mRNA expression in ATDC5 cells; format: cell-based, mouse; details: 10 μg/ml recombinant insulin, 7 days
Compound,joint histology [1],OARSI score relative to MP&si-VPN@HA [2],"walking speed, % of initial level [3]",block of osteophytes formation and ectopic mineralization [4],increase of Col2α1 expression [5]
"C[C@H]1C[C@@H]2[C@H]([C@@H](O)C[C@@]3(C)[C@H]2CC[C@]3(O)C(=O)CO)[C@@]2(C)C=CC(=O)C=C12 [MP, methylprednisolone]",large proteoglycan loss and cartilage erosion,5.67 fold,18.22%,Neither MP nor si-VPN-2 could significantly block osteophytes formation and ectopic mineralization,–
insulin: recombinant insulin used to induce chondrogenesis of ATDC5 cells,–,–,–,–,~ 10 fold
